Results published in patent US20050171094A1, “Pyrrolopyrimidine derivatives” (priority 2002, published 2005).
Read-outs that look alike come from different tables or passages of the source.

Biological target: recombinant human GSK-3β (Homo sapiens, UniProt P49841)
Assay: Determination of inhibition of GSK-3 enzyme activity
Format: biochemical
Conditions: read-out: GSK-3 enzyme-inhibiting activity (IC50 value)
Description: Determination of Inhibition of GSK-3 Enzyme Activity
To five μl of a test compound in 5% DMSO as a solvent, 25 μl of phospho-glycogen synthase peptide-2 substrate solution [6 μm phospho-glycogen synthase peptide-2, 20 μm ATP, 16 mM MOPS buffer, pH 7.0, 0.2 mM EDTA, 20 mM magnesium acetate, 0.1 μl [γ-^33P]ATP (specific activity: about 110 TBq/mmol)] was added, and 20 μl of a GSK-3β enzyme solution [10 mU recombinant human GSK-3β, 20 mM MOPS buffer, pH 7.0, 1 mM EDTA, 0.1% polyoxyethylenelauryl ether (23 Lauryl Ether; Brij 35), 5% glycerol, 0.1% β-mercaptoethanol] was further added to initiate the reaction. After reacting at room temperature for 20 minutes, an equal amount of 200 mM phosphate solution was added to stop the reaction. 90 μl of the reaction product was allowed to adsorb to the MultiScreen PH plate (Millipore), and washed with 100 mM phosphate solution. After drying said plate, 30 μl of MicroScint-O (Packard Bioscience) was added, and cpm was measured by a scintilation counter to examine the inhibition activity. As used herein, Phospho GS Peptide 2 means […]P)-Glu-Asp-Glu-Glu-Glu (SEQ ID NO: 1).

Chain of recombinant human GSK-3β (P49841 whole entry): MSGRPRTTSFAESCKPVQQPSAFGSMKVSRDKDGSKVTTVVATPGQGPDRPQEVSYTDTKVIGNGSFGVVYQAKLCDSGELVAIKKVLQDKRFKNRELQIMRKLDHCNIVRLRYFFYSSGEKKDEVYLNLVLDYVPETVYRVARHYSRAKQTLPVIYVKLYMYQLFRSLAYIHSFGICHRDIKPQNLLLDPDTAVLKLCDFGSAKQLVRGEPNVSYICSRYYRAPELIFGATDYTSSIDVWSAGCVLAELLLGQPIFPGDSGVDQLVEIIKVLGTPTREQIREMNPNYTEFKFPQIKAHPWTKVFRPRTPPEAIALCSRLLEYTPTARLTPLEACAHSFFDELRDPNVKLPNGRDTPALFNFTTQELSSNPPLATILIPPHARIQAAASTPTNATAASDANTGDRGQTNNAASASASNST

| Structure (SMILES) | IC50 (IC50 class given in μM) [µM] | IC50 (phospho-glycogen synthase peptide-2 substrate, [γ-33P]ATP, IC50 class printed in nM) [µM] |
| --- | --- | --- |
| N#Cc1c2n(c3c(=S)[nH]cnc13)CCN(S(=O)(=O)c1ccccc1)CC2 [Compound No. 410, 8-(phenylsulfonyl)-4-thioxo-3-hydro-6H,7H,9H,10H-1,4-diazaperhydroepino[1′,7′-5,1]pyrrolo[3,2-d]pyrimidine-11-carbonitrile] | 1 to 10 | – |
| N#Cc1c2n(c3c(=S)[nH]cnc13)CCN(C(=O)Nc1cccc(C(=O)O)c1)CC2 [Compound No. 792, 3-[(11-cyano-4-thioxo-3-hydro-6H,7H,9H,10H-1,4-diazaperhydroepino[4′,5′-1,5]pyrrolo[3,2-d]pyrimidine-8-yl)carbonylamino]benzoic Acid] | – | < 0.05 |

Second part, the compound after the results:

| IC50 (IC50 class given in μM) [µM] | IC50 (phospho-glycogen synthase peptide-2 substrate, [γ-33P]ATP, IC50 class printed in nM) [µM] | Structure (SMILES) |
| --- | --- | --- |
| 1 to 10 | – | Cc1ccc(C(=O)N2CCc3c(C#N)c4nc[nH]c(=O)c4n3CC2)cc1 [Compound No. 50, 8-[(4-methylphenyl)carbonyl]4-oxo-3-hydro-6H,7H,9H,10H-1,4-diazaperhydroepino[1′,7′-5,1]pyrrolo[3,2-d]pyrimidine-11-carbonitrile] |
| 1 to 10 | – | Cc1ccc(NC(=O)N2CCc3c(C#N)c4nc[nH]c(=O)c4n3CC2)cc1 [Compound No. 161, (11-cyano-4-oxo(3-hydro-6H,7H,9H,10H-1,4-diazaperhydroepino[4′,5′-1,5]pyrrolo[3,2-d]pyrimidine-8-yl))-N-(4-methylphenyl)carboxamide] |
| 1 to 10 | – | N#Cc1c2n(c3c(=S)[nH]cnc13)CCN(Cc1ccccc1)c1ccccc1-2 [Compound No. 1799, 5-benzyl-9-thioxo-10-hydro-6H,7H-benzo[f]pyrimidino[5′,4′-2,3]pyrrolo[1,5-d]1,4-diazepine-13-carbonitrile] |
